Laboratory results reported in ChEMBL document CHEMBL3885881, “DrugMatrix”.

Species on record: Rattus norvegicus
Experiment: DrugMatrix - Regimen: Daily Repeat
Type: toxicity, organism-based, Sprague-Dawley
Parameters: regimen Daily Repeat, gender Male, age 6-8 weeks
Settings: in vivo, po, route oral GAVAGE, […]; for ABSOLUTE BASOPHIL / ABSOLUTE EOSINOPHIL / ABSOLUTE LYMPHOCYTE / ABSOLUTE MONOCYTE / ABSOLUTE SEGMENTED NEUTROPHIL / BASOPHIL / EOSINOPHIL / ERYTHROCYTE COUNT / HEMATOCRIT / HEMOGLOBIN / LEUKOCYTE COUNT / LYMPHOCYTE / MEAN CORPUSCULAR HEMOGLOBIN / MEAN CORPUSCULAR HEMOGLOBIN CONCENTRATION / MEAN CORPUSCULAR VOLUME / MONOCYTE / NEUTROPHIL / NUCLEATED RED BLOOD CELLS / PLATELET COUNT: tissue Blood; for ALANINE AMINOTRANSFERASE / ALBUMIN / ALKALINE PHOSPHATASE / ASPARTATE AMINOTRANSFERASE / BLOOD UREA NITROGEN / CARBON DIOXIDE / CHLORIDE / CHOLESTEROL / CREATINE PHOSPHOKINASE / CREATININE / GLUCOSE / LACTATE DEHYDROGENASE / LIPASE / PHOSPHORUS / POTASSIUM / SODIUM / TOTAL BILIRUBIN / TOTAL PROTEIN / URIC ACID: tissue Plasma
[1] = 20 mg/kg, 120 h, dose level Low, time 5 day
[2] = 200 mg/kg, 72 h, dose level High, time 3 day
[3] = 200 mg/kg, 120 h, dose level High, time 5 day
[4] = 200 mg/kg, dose level High, time 28 day

SMILES: CCCCCCCCCc1ccc(O)cc1 [4-NONYLPHENOL]
- ABSOLUTE BASOPHIL [1]: 0 CELLS/uL
- ABSOLUTE EOSINOPHIL [1]: 0 CELLS/uL
- ABSOLUTE LYMPHOCYTE [1]: 17193.33 CELLS/uL
- ABSOLUTE MONOCYTE [1]: 138.33 CELLS/uL
- ABSOLUTE SEGMENTED NEUTROPHIL [1]: 1901.67 CELLS/uL
- BASOPHIL [1]: 0%
- EOSINOPHIL [1]: 0%
- ERYTHROCYTE COUNT [1]: 5.43 x10E6/uL
- HEMATOCRIT [1]: 34.2%
- HEMOGLOBIN [1]: 13.17 G/DL
- LEUKOCYTE COUNT [1]: 19.23 x10E3/uL
- LYMPHOCYTE [1]: 89.67%
- MEAN CORPUSCULAR HEMOGLOBIN [1]: 24.2 pg
- MEAN CORPUSCULAR HEMOGLOBIN CONCENTRATION [1]: 38.5 G/DL
- MEAN CORPUSCULAR VOLUME [1]: 62.9 fL
- MONOCYTE [1]: 0.67%
- NEUTROPHIL [1]: 9.67%
- NUCLEATED RED BLOOD CELLS [1]: 0 /100WBC
- PLATELET COUNT [1]: 1124 x10E3/uL
- ALANINE AMINOTRANSFERASE [1]: 65.33 u/L
- ALBUMIN [1]: 3.77 G/DL
- ALKALINE PHOSPHATASE [1]: 413 u/L
- ASPARTATE AMINOTRANSFERASE [1]: 82.67 u/L
- BLOOD UREA NITROGEN [1]: 15.67 mg/dL
- CARBON DIOXIDE [1]: 25.67 mmol/L
- CHLORIDE [1]: 102.33 MEQ/L
- CHOLESTEROL [1]: 56.33 mg/dL
- CREATINE PHOSPHOKINASE [1]: 278 u/L
- CREATININE [1]: 0.21 mg/dL
- GLUCOSE [1]: 202.33 mg/dL
- LACTATE DEHYDROGENASE [1]: 147 u/L
- LIPASE [1]: 10.67 u/L
- PHOSPHORUS [1]: 10.77 mg/dL
- POTASSIUM [1]: 5.35 MEQ/L
- SODIUM [1]: 142.1 MEQ/L
- TOTAL BILIRUBIN [1]: 0.2 mg/dL
- TOTAL PROTEIN [1]: 5.57 G/DL
- URIC ACID [1]: 1.3 mg/dL
- ABSOLUTE BASOPHIL [2]: 0 CELLS/uL
- ABSOLUTE EOSINOPHIL [2]: 0 CELLS/uL
- ABSOLUTE LYMPHOCYTE [2]: 7018 CELLS/uL
- ABSOLUTE MONOCYTE [2]: 153.33 CELLS/uL
- ABSOLUTE SEGMENTED NEUTROPHIL [2]: 495.33 CELLS/uL
- BASOPHIL [2]: 0%
- EOSINOPHIL [2]: 0%
- ERYTHROCYTE COUNT [2]: 5.58 x10E6/uL
- HEMATOCRIT [2]: 35.4%
- HEMOGLOBIN [2]: 13.8 G/DL
- LEUKOCYTE COUNT [2]: 7.67 x10E3/uL
- LYMPHOCYTE [2]: 92%
- MEAN CORPUSCULAR HEMOGLOBIN [2]: 24.73 pg
- MEAN CORPUSCULAR HEMOGLOBIN CONCENTRATION [2]: 39 G/DL
- MEAN CORPUSCULAR VOLUME [2]: 63.47 fL
- MONOCYTE [2]: 2%
- NEUTROPHIL [2]: 6%
- NUCLEATED RED BLOOD CELLS [2]: 0 /100WBC
- PLATELET COUNT [2]: 1128 x10E3/uL
- ALANINE AMINOTRANSFERASE [2]: 81.33 u/L
- ALBUMIN [2]: 3.77 G/DL
- ALKALINE PHOSPHATASE [2]: 503.67 u/L
- ASPARTATE AMINOTRANSFERASE [2]: 95.67 u/L
- BLOOD UREA NITROGEN [2]: 14.33 mg/dL
- CARBON DIOXIDE [2]: 32 mmol/L
- CHLORIDE [2]: 103 MEQ/L
- CHOLESTEROL [2]: 45.33 mg/dL
- CREATINE PHOSPHOKINASE [2]: 276.67 u/L
- CREATININE [2]: 0.21 mg/dL
- GLUCOSE [2]: 139 mg/dL
- LACTATE DEHYDROGENASE [2]: 138.67 u/L
- LIPASE [2]: 10 u/L
- PHOSPHORUS [2]: 10.23 mg/dL
- POTASSIUM [2]: 5.46 MEQ/L
- SODIUM [2]: 145.47 MEQ/L
- TOTAL BILIRUBIN [2]: 0.1 mg/dL
- TOTAL PROTEIN [2]: 5.47 G/DL
- URIC ACID [2]: 0.9 mg/dL
- ABSOLUTE BASOPHIL [3]: 0 CELLS/uL
- ABSOLUTE EOSINOPHIL [3]: 0 CELLS/uL
- ABSOLUTE LYMPHOCYTE [3]: 11098.67 CELLS/uL
- ABSOLUTE MONOCYTE [3]: 165.33 CELLS/uL
- ABSOLUTE SEGMENTED NEUTROPHIL [3]: 402.67 CELLS/uL
- NUCLEATED RED BLOOD CELLS [3]: 0 /100WBC
- CARBON DIOXIDE [3]: 26.67 mmol/L
- LACTATE DEHYDROGENASE [3]: 116.33 u/L
- LIPASE [3]: 10.33 u/L
- URIC ACID [3]: 1.43 mg/dL
- BASOPHIL [4]: 0.42%
- EOSINOPHIL [4]: 0.61%
- ERYTHROCYTE COUNT [4]: 8.21 x10E6/uL
- HEMATOCRIT [4]: 48.61%
- HEMOGLOBIN [4]: 16.26 G/DL
- LEUKOCYTE COUNT [4]: 11.53 x10E3/uL
- LYMPHOCYTE [4]: 85.82%
- MEAN CORPUSCULAR HEMOGLOBIN [4]: 19.84 pg
- MEAN CORPUSCULAR HEMOGLOBIN CONCENTRATION [4]: 33.5 G/DL
- MEAN CORPUSCULAR VOLUME [4]: 59.24 fL
- MONOCYTE [4]: 1.34%
- NEUTROPHIL [4]: 10.54%
- PLATELET COUNT [4]: 1292.8 x10E3/uL
- ALANINE AMINOTRANSFERASE [4]: 29.3 u/L
- ALBUMIN [4]: 3.91 G/DL
- ALKALINE PHOSPHATASE [4]: 186.6 u/L
- ASPARTATE AMINOTRANSFERASE [4]: 70.1 u/L
- BLOOD UREA NITROGEN [4]: 11.8 mg/dL
- CHLORIDE [4]: 107.1 MEQ/L
- CHOLESTEROL [4]: 66 mg/dL
- CREATINE PHOSPHOKINASE [4]: 191.6 u/L
- CREATININE [4]: 0.46 mg/dL
- GLUCOSE [4]: 145.6 mg/dL
- PHOSPHORUS [4]: 12.09 mg/dL
- POTASSIUM [4]: 6.67 MEQ/L
- SODIUM [4]: 149 MEQ/L
- TOTAL BILIRUBIN [4]: 0.23 mg/dL
- TOTAL PROTEIN [4]: 6.7 G/DL
